# According to patent USRE39591E1, “6-O-substituted ketolides having antibacterial activity” (Abbott Laboratories, priority 1996, dated 2007):
# Tested on: up to 32 different microorganisms
# Assay: in vitro antibacterial activity (MIC), agar dilution on Brain Heart Infusion (BHI) agar with Steers replicator
# Assay type: cell-based
# Settings: unit assumed
# Protocol: Representative compounds of the present invention were assayed in vitro for antibacterial activity as follows: Twelve petri dishes containing successive aqueous dilutions of the test compound mixed with 10 mL of sterilized Brain Heart Infusion (BHI) agar (Difco 0148-01-5) were prepared. Each plate was inoculated with 1:100 (or 1:10 for slow-growing strains, such as Micrococcus and Streptococcus) dilutions of up to 32 different microorganisms, using a Steers replicator block. The inoculated plates were incubated at 35°-37° C. for 20 to 24 hours. In addition, a control plate, using BHI agar containing no test compound, was prepared and incubated at the beginning and end of each test.
# An additional plate containing a compound having known susceptibility patterns for the organisms being tested and belonging to the same antibiotic class as the test compound was also prepared and incubated as a further control, as well as to provide test-to-test comparability. Erythromycin A was used for this purpose.
# After incubation, each plate was visually inspected. The minimum inhibitory concentration (MIC) was defined as the lowest concentration of drug yielding no growth, a slight haze, or sparsely isolated colonies on the inoculum spot as compared to the growth control.
# [1] = Candida albicans CCH 442 (code TT)
# [2] = Enterococcus faecism ATCC 8043 (code II)
# [3] = Escherichia coli DC-2 (code SS)
# [4] = Escherichia coli JUHL (code QQ)
# [5] = Micrococcus luteus ATCC 4698 (code PP)
# [6] = Micrococcus luteus ATCC 9341 (code OO)
# [7] = Mycobacterium smegmatis ATCC 114 (code UU)
# [8] = Nocardia Asteroides ATCC9970 (code VV)
# [9] = Staphylococcus aureus 1775 (code GG)
# [10] = Staphylococcus aureus A5177 (code BB)
# [11] = Staphylococcus aureus A-5278 (code CC)
# [12] = Staphylococcus aureus ATCC 6538P (code AA)
# [13] = Staphylococcus aureus CMX 553 (code FF)
# [14] = Staphylococcus aureus CMX 642A (code DD)
# [15] = Staphylococcus aureus NCTC10649M (code EE)
# [16] = Staphylococcus epidermidis 3519 (code HH)
# [17] = Streptococcus agalactiae CMX 508 (code KK)
# [18] = Streptococcus bovis A-5169 (code JJ)
# [19] = Streptococcus pyogenes 930 (code MM)
# [20] = Streptococcus pyogenes PIU 2548 (code NN)
smiles,measurement,setting,value
"CCC1OC(=O)C(C)C(=O)C(C)C(OC2OC(C)CC(N(C)C)C2O)C(C)(OCC(O)c2ccccc2)CC(C)C(=O)C(C)C2NC(=O)OC12C (single isomer, unassigned) [Example 261A]",MIC,organism code AA,6.2 µg/mL
same,MIC,organism code BB,6.2 µg/mL
same,MIC,organism code CC,> 100 µg/mL
same,MIC,organism code DD,12.5 µg/mL
same,MIC,organism code EE,12.5 µg/mL
same,MIC,organism code FF,12.5 µg/mL
same,MIC,organism code GG,> 100 µg/mL
same,MIC,organism code HH,6.2 µg/mL
same,MIC,organism code II,1.56 µg/mL
same,MIC,organism code JJ,0.39 µg/mL
same,MIC,organism code KK,0.39 µg/mL
same,MIC,organism code LL,0.39 µg/mL
same,MIC,organism code MM,> 100 µg/mL
same,MIC,organism code NN,1.56 µg/mL
same,MIC,organism code OO,0.78 µg/mL
same,MIC,organism code PP,3.1 µg/mL
same,MIC,organism code QQ,> 100 µg/mL
same,MIC,organism code RR,6.2 µg/mL
same,MIC,organism code SS,> 100 µg/mL
same,MIC,organism code TT,> 100 µg/mL
same,MIC,organism code UU,25 µg/mL
same,MIC,organism code VV,6.2 µg/mL
same,MIC,organism code WW,64 µg/mL
same,MIC,organism code XX,1 µg/mL
same,MIC,organism code YY,1 µg/mL
same,MIC,organism code ZZ,> 128 µg/mL
same,MIC,organism code ZZA,2 µg/mL
"CCC1OC(=O)C(C)C(=O)C(C)C(OC2OC(C)CC(N(C)C)C2O)C(C)(OCC(O)c2ccccc2)CC(C)C(=O)C(C)C2NC(=O)OC12C (single isomer, unassigned) [Example 261B]",MIC,organism code AA,3.1 µg/mL
same,MIC,organism code BB,3.1 µg/mL
same,MIC,organism code CC,> 100 µg/mL
same,MIC,organism code DD,6.2 µg/mL
same,MIC,organism code EE,3.1 µg/mL
same,MIC,organism code FF,3.1 µg/mL
same,MIC,organism code GG,> 100 µg/mL
same,MIC,organism code HH,6.2 µg/mL
same,MIC,organism code II,0.78 µg/mL
same,MIC,organism code JJ,0.39 µg/mL
same,MIC,organism code KK,0.39 µg/mL
same,MIC,organism code LL,0.39 µg/mL
same,MIC,organism code MM,> 100 µg/mL
same,MIC,organism code NN,0.78 µg/mL
same,MIC,organism code OO,0.39 µg/mL
same,MIC,organism code PP,1.56 µg/mL
same,MIC,organism code QQ,> 100 µg/mL
same,MIC,organism code RR,6.2 µg/mL
same,MIC,organism code SS,> 100 µg/mL
same,MIC,organism code TT,> 100 µg/mL
same,MIC,organism code UU,25 µg/mL
same,MIC,organism code VV,6.2 µg/mL
same,MIC,organism code WW,32 µg/mL
same,MIC,organism code XX,0.5 µg/mL
same,MIC,organism code YY,0.5 µg/mL
same,MIC,organism code ZZ,> 128 µg/mL
same,MIC,organism code ZZA,1 µg/mL
"C=CCOC1(C)CC(C)C(=O)C(C)C(O)C(C)(O)C(CC)OC(=O)C(C)C(=O)C(C)C1OC1OC(C)CC(N(C)C)C1O (stereo not drawn) [Example 1, Compound of Formula (VIII): X is O, R is allyl]",MIC,[1],> 100 µg/mL
same,MIC,[2],12.5 µg/mL
same,MIC,[3],> 100 µg/mL
same,MIC,[4],> 100 µg/mL
same,MIC,Escherichia coli SS (code RR),12.5 µg/mL
same,MIC,Haemophilis influenzae DILL AMP R (code WW),> 128 µg/mL
same,MIC,[5],6.2 µg/mL
same,MIC,[6],3.1 µg/mL
same,MIC,[7],> 100 µg/mL
same,MIC,[8],6.3 µg/mL
same,MIC,[9],> 100 µg/mL
same,MIC,[10],50 µg/mL
same,MIC,[11],> 100 µg/mL
same,MIC,[12],12.5 µg/mL
same,MIC,[13],25 µg/mL
same,MIC,[14],50 µg/mL
same,MIC,[15],6.2 µg/mL
same,MIC,[16],50 µg/mL
same,MIC,Streptococcus Pneumonia 5649 (code ZZA),8 µg/mL
same,MIC,Streptococcus Pneumonia 5979 (code ZZ),> 128 µg/mL
same,MIC,Streptococcus Pneumonia ATCC6303 (code XX),4 µg/mL
same,MIC,Streptococcus Pneumonia GYR 1171 (code YY),4 µg/mL
same,MIC,[17],6.2 µg/mL
same,MIC,[18],25 µg/mL
same,MIC,[19],> 100 µg/mL
same,MIC,[20],12.5 µg/mL
"C=CCOC1(C)CC(C)C(=NO)C(C)C(O)C(C)(O)C(CC)OC(=O)C(C)C(=O)C(C)C1OC1OC(C)CC(N(C)C)C1O (stereo not drawn) [Example 2, Compound of Formula (VIII): X is NOH, R is allyl]",MIC,[1],> 100 µg/mL
same,MIC,[2],6.2 µg/mL
same,MIC,[3],> 100 µg/mL
same,MIC,[4],> 100 µg/mL
same,MIC,Escherichia coli SS (code RR),3.1 µg/mL
same,MIC,[5],3.1 µg/mL
same,MIC,[6],1.56 µg/mL
same,MIC,[7],25 µg/mL
same,MIC,[8],0.2 µg/mL
same,MIC,[9],> 100 µg/mL
same,MIC,[10],3.1 µg/mL
same,MIC,[11],> 100 µg/mL
same,MIC,[12],3.1 µg/mL
same,MIC,[13],3.1 µg/mL
same,MIC,[14],3.1 µg/mL
same,MIC,[15],1.56 µg/mL
same,MIC,[16],6.2 µg/mL
same,MIC,[17],1.56 µg/mL
same,MIC,[18],3.1 µg/mL
same,MIC,[19],> 100 µg/mL
same,MIC,Streptococcus pyogenes EES61 (code LL),3.1 µg/mL
same,MIC,[20],3.1 µg/mL
